Laboratory results from patent US20260022143A1, “Cyclic Peptide Inhibitors of IL-23” (JANSSEN PHARMACEUTICA NV, priority 2022, published 2026).
Starred links: 1 amine or outer side, 2 acyl side, 3 side chain; linkers in the order of their positions; H or OH if unused. Positions of bridges follow the written chain, without caps; N, C: chain ends. Non-standard residues stand in square brackets, D forms with d. Residues, ends and D or L forms follow the SMILES beside them. ξ: configuration not given here. *: point of attachment. Trp(7-(3-AcNH-Ph)) = CC(=O)Nc1cccc(-c2cccc3c(C[C@H](N)C(=O)O)c[nH]c23)c1; X41 = C[N+]1(CCCCCCCc2cn(-c3ccc(C[C@H](N[*:1])C(=O)[*:2])cc3)nn2)CCOCC1; X6 = C[N+](C)(C)CCCCCCCc1cn(-c2ccc(C[C@H](N[*:1])C(=O)[*:2])cc2)nn1; Me3N+(CH2)2O(CH2)2O(CH2)2CO = C[N+](C)(C)CCOCCOCCC(=O)*; CH2CH2OCH2CH2OCH2CH2NMe3+ = C[N+](C)(C)CCOCCOCC*; Trp(7-Me) = Cc1cccc2c(C[C@H](N)C(=O)O)c[nH]c12; Abu(4-yl) = O=C([C@H](CC[*:3])N[*:1])[*:2]; 3Pal(5-Me) = Cc1cncc(C[C@H](N)C(=O)O)c1; 2Nal = N[C@@H](Cc1ccc2ccccc2c1)C(=O)O; AEF = NCCOc1ccc(C[C@H](N)C(=O)O)cc1; 3Pal = N[C@@H](Cc1cccnc1)C(=O)O; ξThr(3R) = C[C@@H](O)C(N)C(=O)O; Lys(Me) = CNCCCC[C@H](N)C(=O)O; Pen = CC(C)(S)[C@H](N)C(=O)O; ξLys(Me) = CNCCCCC(N)C(=O)O; αMeC = C[C@](N)(CS)C(=O)O; Thp = NC1(C(=O)O)CCOCC1; X3 = C[N+](C)(C)CCCCC*; Sar = CNCC(=O)O

Assays:
[1] = Exposed Polar Surface Area (EPSA); format: physicochemical; conditions: SFC on Chirex 3014 column; sample 1 mM DMSO stock; read-out: EPSA
Method in brief: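 SFC retention on a Chirex 3014 (S)-valine/(R)-1-(α-naphthyl)ethylamine column, 35 °C, CO2 with MeOH (20 mM ammonium formate) gradient 5–60% at 20%/min, 14 MPa outlet. Retention times converted to EPSA (Å^2) via linear calibration with 8 standards; samples from 1 mM DMSO stock, run in duplicate.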

IL-23R = biological target: T1, IL-23R (Homo sapiens, UniProt Q5VWK5); assay: IL23R Reporter Assay; format: cell-based; conditions: HEK293 cells containing IL-23R, IL-12RP1 and STAT-inducible firefly luciferase reporter; 10 ng/mL IL-23 (EC90); 5 h at 37° C.; read-out: IL23R Reporter Assay
T1 construct: host or cells: HEK293
T1 sequence (Q5VWK5 24-629): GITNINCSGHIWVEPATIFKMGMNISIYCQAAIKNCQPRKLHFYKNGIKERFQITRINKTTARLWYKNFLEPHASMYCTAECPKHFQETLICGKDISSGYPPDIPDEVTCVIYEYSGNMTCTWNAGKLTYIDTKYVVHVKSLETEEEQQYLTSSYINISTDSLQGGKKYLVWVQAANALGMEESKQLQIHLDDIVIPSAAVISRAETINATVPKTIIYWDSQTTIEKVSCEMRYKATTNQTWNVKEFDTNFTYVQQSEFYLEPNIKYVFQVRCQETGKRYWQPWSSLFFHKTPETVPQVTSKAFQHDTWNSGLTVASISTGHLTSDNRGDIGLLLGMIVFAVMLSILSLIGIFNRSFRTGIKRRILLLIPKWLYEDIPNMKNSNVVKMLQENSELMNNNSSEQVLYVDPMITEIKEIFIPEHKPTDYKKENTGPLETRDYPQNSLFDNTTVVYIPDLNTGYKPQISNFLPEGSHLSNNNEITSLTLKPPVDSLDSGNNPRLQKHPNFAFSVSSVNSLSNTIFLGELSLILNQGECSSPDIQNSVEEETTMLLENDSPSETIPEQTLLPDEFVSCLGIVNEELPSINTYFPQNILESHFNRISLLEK

Row | Structure (SMILES) | EPSA [1] [A^2] | IC50 (IL-23R) [nM]
1 | CC(=O)NCCCC[C@@H]1NC(=O)[C@H](Cc2c[nH]c3c(C)cccc23)NC(=O)[C@H]([C@@H](C)O)NC(=O)[C@H](CC(N)=O)NC(=O)[C@@H](NC(=O)[C@@H](CCCNC(=N)N)NC(=O)CCOCCOCC[N+](C)(C)C)C(C)(C)SSC(C)(C)[C@@H](C(=O)N[C@@H](Cc2ccc(OCCN)cc2)C(=O)N[C@@H](Cc2ccc3ccccc3c2)C(=O)NC2(C(=O)N[C@@H](CCC(=O)O)C(=O)N[C@@H](CC(N)=O)C(=O)N[C@@H](Cc3cncc(C)c3)C(=O)N(C)CC(N)=O)CCOCC2)NC1=O [compound 473, cPEG3aCO-r-Pen(3)-N-T-7MeW-K(Ac)-Pen(3)-AEF-2Nal-THP-E-N-5MePyridinAla-Sar-CONH2] ({Me3N+(CH2)2O(CH2)2O(CH2)2CO}-[dR][Pen]NT[Trp(7-Me)]K(Ac)[Pen][AEF][2Nal][Thp]EN[3Pal(5-Me)][Sar]-NH2; disulfide 2-7) | 202 | 12
2 | CC(=O)N(C)CCCCC(NC(=O)C1(NC(=O)[C@H](Cc2ccc3ccccc3c2)NC(=O)[C@H](Cc2ccc(OCCOCCOCC[N+](C)(C)C)cc2)NC(=O)[C@@H]2CCSC[C@H](NC(=O)CCOCCOCC[N+](C)(C)C)C(=O)N[C@@H](CC(=O)N(C)C)C(=O)N[C@@H]([C@@H](C)O)C(=O)N[C@@H](Cc3c[nH]c4c(C)cccc34)C(=O)N[C@@H](CCCCN(C)C(C)=O)C(=O)N2)CCOCC1)C(=O)N[C@@H](CC(N)=O)C(=O)N[C@@H](Cc1ccccc1)C(=O)N(C)CC(=O)N(C)C (stereo partly drawn) [compound 475, cPEG3aCO-Abu(1)-N(N(Me)2)-T-7MeW-K(NMeAc)-C(1)-APEG3F-2Nal-THP-K(NMeAc)-N-F-Sar-CON(Me)2] ({Me3N+(CH2)2O(CH2)2O(CH2)2CO}-CD(NMe2)T[Trp(7-Me)][Lys(Me)](Ac)[Abu(4-yl)]Y(CH2CH2OCH2CH2OCH2CH2NMe3+)[2Nal][Thp][ξLys(Me)](Ac)NF[Sar]-NMe2; thioether 1-6) | 153 | 1540
3 | CC(=O)N(C)CCCCC(NC(=O)C1(NC(=O)[C@H](Cc2ccc3ccccc3c2)NC(=O)[C@H](Cc2ccc(OCCOCCOCC[N+](C)(C)C)cc2)NC(=O)[C@@H]2CSCC[C@H](NC(=O)CCOCCOCC[N+](C)(C)C)C(=O)N[C@@H](CC(=O)N(C)C)C(=O)N[C@@H]([C@@H](C)O)C(=O)N[C@@H](Cc3c[nH]c4c(C)cccc34)C(=O)N[C@@H](CCCCN(C)C(C)=O)C(=O)N2)CCOCC1)C(=O)N[C@@H](CC(N)=O)C(=O)N[C@@H](C)C(=O)N(C)CC(=O)N(C)C (stereo partly drawn) [compound 476, cPEG3aCO-Abu(1)-N(N(Me)2)-T-7MeW-K(NMeAc)-C(1)-APEG3F-2Nal-THP-K(NMeAc)-N-A-Sar-CON(Me)2] ({Me3N+(CH2)2O(CH2)2O(CH2)2CO}-[Abu(4-yl)]D(NMe2)T[Trp(7-Me)][Lys(Me)](Ac)CY(CH2CH2OCH2CH2OCH2CH2NMe3+)[2Nal][Thp][ξLys(Me)](Ac)NA[Sar]-NMe2; thioether 1-6) | 155 | > 2590
4 | CC(=O)NCCCC[C@@H]1NC(=O)[C@H](Cc2c[nH]c3c(-c4cccc(NC(C)=O)c4)cccc23)NC(=O)[C@H]([C@@H](C)O)NC(=O)[C@H](CC(N)=O)NC(=O)[C@@H](NC(C)=O)CCSC[C@@](C)(C(=O)N[C@@H](Cc2ccc(OCCCCC[N+](C)(C)C)cc2)C(=O)N[C@@H](Cc2ccc3ccccc3c2)C(=O)NC2(C(=O)N[C@@H](CCCCNC(C)=O)C(=O)N[C@@H](CC(N)=O)C(=O)N[C@@H](Cc3cccnc3)C(=O)N(C)CC(N)=O)CCOCC2)NC1=O [compound 477, MeCO-Abu(1)-N-T-7(3NAcPh)W-K(Ac)-aMeC(1)-TMAPF-2Nal-THP-K(Ac)-N-3Pya-Sar-CONH2] (Ac-[Abu(4-yl)]NT[Trp(7-(3-AcNH-Ph))]K(Ac)[αMeC]Y(X3)[2Nal][Thp]K(Ac)N[3Pal][Sar]-NH2; thioether 1-6) | 166 | 6.1
5 | CC(=O)N(C)CCCC[C@@H]1NC(=O)[C@H](Cc2c[nH]c3c(C)cccc23)NC(=O)[C@H]([C@@H](C)O)NC(=O)[C@H](CC(=O)N(C)C)NC(=O)[C@@H](NC(=O)CCOCCOCC[N+](C)(C)C)C(C)(C)SSC(C)(C)[C@@H](C(=O)N[C@@H](Cc2ccc(-n3cc(CCCCCCC[N+]4(C)CCOCC4)nn3)cc2)C(=O)N[C@@H](Cc2ccc3ccccc3c2)C(=O)NC2(C(=O)N[C@@H](CCCCN(C)C(C)=O)C(=O)N[C@@H](CC(N)=O)C(=O)N[C@@H](Cc3cccnc3)C(=O)N(C)CC(=O)N(C)C)CCOCC2)NC1=O [compound 479, cPEG3aCO-Pen(3)-N(N(Me)2)-T-7MeW-K(NMeAc)-Pen(3)-F(4TzIMMo7)-2Nal-THP-K(NMeAc)-N-3Pya-Sar-CON(Me)2] ({Me3N+(CH2)2O(CH2)2O(CH2)2CO}-[Pen]D(NMe2)T[Trp(7-Me)][Lys(Me)](Ac)[Pen][X41][2Nal][Thp][Lys(Me)](Ac)N[3Pal][Sar]-NMe2; disulfide 1-6) | 158 | 3.4
6 | CC(=O)N(C)CCCC[C@@H]1NC(=O)[C@H](Cc2c[nH]c3c(C)cccc23)NC(=O)[C@H]([C@@H](C)O)NC(=O)[C@H](CC(=O)N(C)C)NC(=O)[C@@H](NC(=O)CCOCCOCC[N+](C)(C)C)CSSC[C@@H](C(=O)N[C@@H](Cc2ccc(OCCCCC[N+](C)(C)C)cc2)C(=O)N[C@@H](Cc2ccc3ccccc3c2)C(=O)NC2(C(=O)N[C@@H](CCCCN(C)C(C)=O)C(=O)N[C@@H](CC(N)=O)C(=O)N[C@@H](Cc3cccnc3)C(=O)N(C)CC(=O)N(C)C)CCOCC2)NC1=O [compound 483, cPEG3aCO-C(3)-N(N(Me)2)-T-7MeW-K(NMeAc)-C(3)-TMAPF-2Nal-THP-K(NMeAc)-N-3Pya-Sar-CON(Me)2] ({Me3N+(CH2)2O(CH2)2O(CH2)2CO}-CD(NMe2)T[Trp(7-Me)][Lys(Me)](Ac)CY(X3)[2Nal][Thp][Lys(Me)](Ac)N[3Pal][Sar]-NMe2; disulfide 1-6) | 165 | 3.8
7 | CC(=O)N(C)CCCC[C@@H]1NC(=O)[C@H](Cc2c[nH]c3c(C)cccc23)NC(=O)[C@H]([C@@H](C)O)NC(=O)[C@H](CC(=O)N(C)C)NC(=O)[C@@H](NC(=O)CCOCCOCC[N+](C)(C)C)C(C)(C)SSC(C)(C)[C@@H](C(=O)N[C@@H](Cc2ccc(OCCCCC[N+](C)(C)C)cc2)C(=O)N[C@@H](Cc2ccc3ccccc3c2)C(=O)NC2(C(=O)N[C@@H](CCCCN(C)C(C)=O)C(=O)N[C@@H](CC(N)=O)C(=O)N[C@@H](Cc3cccnc3)C(=O)N(C)CC(=O)N(C)C)CCOCC2)NC1=O [compound 484, cPEG3aCO-C(3)-N(N(Me)2)-T-7MeW-K(NMeAc)-Pen(3)-TMAPF-2Nal-THP-K(NMeAc)-N-3Pya-Sar-CON(Me)2] ({Me3N+(CH2)2O(CH2)2O(CH2)2CO}-[Pen]D(NMe2)T[Trp(7-Me)][Lys(Me)](Ac)[Pen]Y(X3)[2Nal][Thp][Lys(Me)](Ac)N[3Pal][Sar]-NMe2; disulfide 1-6) | 163 | 3.1
8 | CC(=O)N(C)CCCC[C@@H]1NC(=O)[C@H](Cc2c[nH]c3c(C)cccc23)NC(=O)[C@H]([C@@H](C)O)NC(=O)[C@H](CC(=O)N(C)C)NC(=O)[C@@H](NC(=O)CCOCCOCC[N+](C)(C)C)C(C)(C)SSC(C)(C)[C@@H](C(=O)N[C@@H](Cc2ccc(-n3cc(CCCCCCC[N+](C)(C)C)nn3)cc2)C(=O)N[C@@H](Cc2ccc3ccccc3c2)C(=O)NC2(C(=O)N[C@@H](CCCCN(C)C(C)=O)C(=O)N[C@@H](CC(N)=O)C(=O)N[C@@H](Cc3cccnc3)C(=O)N(C)CC(=O)N(C)C)CCOCC2)NC1=O [compound 486, cPEG3aCO-Pen(3)-N(N(Me)2)-T-7MeW-K(NMeAc)-Pen(3)-F(4TzlTMA7)-2Nal-THP-K(NMeAc)-N-3Pya-Sar-CON(Me)2] ({Me3N+(CH2)2O(CH2)2O(CH2)2CO}-[Pen]D(NMe2)T[Trp(7-Me)][Lys(Me)](Ac)[Pen][X6][2Nal][Thp][Lys(Me)](Ac)N[3Pal][Sar]-NMe2; disulfide 1-6) | 164 | 4.4
9 | CC(=O)N(C)CCCC[C@H](NC(=O)[C@H](CC(C)C)NC(=O)[C@H](Cc1ccc2ccccc2c1)NC(=O)[C@H](Cc1ccc(OCCCCC[N+](C)(C)C)cc1)NC(=O)[C@H]1NC(=O)[C@H](CCCCN(C)C(C)=O)NC(=O)[C@H](Cc2c[nH]c3c(C)cccc23)NC(=O)C([C@@H](C)O)NC(=O)[C@H](CC(=O)N(C)C)NC(=O)[C@@H](NC(=O)CCOCCOCC[N+](C)(C)C)C(C)(C)SSC1(C)C)C(=O)N[C@@H](CC(N)=O)C(=O)N[C@@H](Cc1cccnc1)C(=O)N(C)CC(=O)N(C)C (stereo partly drawn) [compound 487, cPEG3aCO-Pen(3)-N(N(Me)2)-T-7MeW-K(NMeAc)-Pen(3)-TMAPf-2Nal-L-K(NMeAc)-N-3Pya-Sar-CON(Me)2] ({Me3N+(CH2)2O(CH2)2O(CH2)2CO}-[Pen]D(NMe2)[ξThr(3R)][Trp(7-Me)][Lys(Me)](Ac)[Pen]Y(X3)[2Nal]L[Lys(Me)](Ac)N[3Pal][Sar]-NMe2; disulfide 1-6) | 164 | 3.4
